The values that follow come from patent US10239843B2 (CANCER RESEARCH TECHNOLOGY LIMITED, priority 2014, dated 2019).

One experiment relates to PARG in HeLa cell line. The experiment can be described thus: PARG cell assay (PAR chain immunofluorescence after MMS). The experiment is classed as cell-based. The settings on record: HeLa cells. A digest of the protocol:
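Nuclear poly(ADP-ribose) chains in HeLa cells are read by indirect immunofluorescence with a mouse anti-PAR antibody applied overnight at 4° C after fixing and permeabilising. Cells get 1 h of compound, then 50 μg/mL MMS (final) for another hour. PAR persisting at that point reflects PARG inhibition.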

Another experiment addresses Human Full Length PARG (Homo sapiens (Human), UniProt Q86W56). The experiment in a line: PARG enzyme assay (TR-FRET). The class given is biochemical.
The mark [1] stands for this setting: Homo sapiens, MMS treatment, read-out: PARG Cell IC50.
The mark [2] stands for this setting: MMS 50 μg/mL, read-out: PARG Cell IC50 Geomean.
[3] abbreviates: read-out: PARG Biochem IC50 Geomean.
The mark [4] stands for this setting: Homo sapiens, MMS 50 μg/mL, read-out: PARG Cell IC50 Geomean.
Where [5] appears, read: MMS treatment, read-out: PARG Cell IC50.

Each structure is given as a SMILES string. Where two headings read alike, the source gives them in different places. A value given as a limit tells only on which side of the number the result lay.

Sequence of Human Full Length PARG (Q86W56 whole entry): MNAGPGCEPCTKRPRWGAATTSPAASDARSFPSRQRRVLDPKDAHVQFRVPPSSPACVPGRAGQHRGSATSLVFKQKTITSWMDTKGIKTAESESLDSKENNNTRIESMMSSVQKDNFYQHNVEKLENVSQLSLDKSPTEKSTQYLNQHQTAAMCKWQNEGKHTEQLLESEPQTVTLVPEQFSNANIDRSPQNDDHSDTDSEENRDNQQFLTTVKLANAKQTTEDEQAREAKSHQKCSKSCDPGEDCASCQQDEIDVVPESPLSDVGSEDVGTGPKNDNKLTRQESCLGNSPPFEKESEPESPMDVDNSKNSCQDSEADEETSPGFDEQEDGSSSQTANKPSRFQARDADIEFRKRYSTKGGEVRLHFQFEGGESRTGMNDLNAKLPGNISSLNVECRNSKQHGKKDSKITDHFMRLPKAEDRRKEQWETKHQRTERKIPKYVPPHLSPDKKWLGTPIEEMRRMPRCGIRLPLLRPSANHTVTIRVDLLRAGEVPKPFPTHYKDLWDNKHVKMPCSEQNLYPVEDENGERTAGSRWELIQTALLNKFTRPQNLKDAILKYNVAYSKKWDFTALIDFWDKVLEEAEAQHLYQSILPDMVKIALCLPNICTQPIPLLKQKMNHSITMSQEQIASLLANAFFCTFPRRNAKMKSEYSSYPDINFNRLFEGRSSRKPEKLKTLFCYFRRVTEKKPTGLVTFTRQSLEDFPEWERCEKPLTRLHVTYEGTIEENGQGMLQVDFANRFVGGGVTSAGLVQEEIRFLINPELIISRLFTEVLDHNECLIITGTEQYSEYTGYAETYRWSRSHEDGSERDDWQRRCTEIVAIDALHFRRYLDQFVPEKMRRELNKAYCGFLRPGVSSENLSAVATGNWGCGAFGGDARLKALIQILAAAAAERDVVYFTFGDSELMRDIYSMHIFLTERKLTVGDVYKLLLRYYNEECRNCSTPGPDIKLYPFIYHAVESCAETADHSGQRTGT

Regarding `CC1(NS(=O)(=O)c2ccc3[nH]c(=O)c(Br)cc3c2)CC1` [Example 487, 3-Bromo-N-(1-methylcyclopropyl)-2-oxo-1H-quinoline-6-sulfonamide], the half-inhibitory concentration (IC50) is above 30000 nM in the experiment on PARG in HeLa cell line (setting [1]) and 8970 nM on Human Full Length PARG (read-out: PARG Biochem IC50).

Take `Cn1cc(Cn2c(=O)c3cc(S(=O)(=O)NC4(C)CC4)ccc3n(CC3CC(F)(F)C3)c2=O)cn1` [Example 436, 1-[(3,3-Difluorocyclobutyl)methyl]-N-(1-methylcyclopropyl)-3-[(1-methylpyrazol-4-yl)methyl]-2,4-dioxo-quinazoline-6-sulfonamide]: the IC50 in the experiment with PARG in HeLa cell line (setting [1]) was determined as 70 nM; on Human Full Length PARG (read-out: PARG Biochem IC50), 118 nM.

Consider `Cc1cc(Cn2c(=O)[nH]c3ccc(S(=O)(=O)NC4(C#N)CC4)cc3c2=O)on1` [Example 228, N-(1-Cyanocyclopropyl)-3-[(3-methylisoxazol-5-yl)methyl]-2,4-dioxo-1H-quinazoline-6-sulfonamide], for which the figures for the IC50 in the experiment with PARG in HeLa cell line (setting [2]) and at Human Full Length PARG (setting [3]) were 15200 nM and 356 nM, respectively.

For the compound `Cc1ncc(Cn2c(=O)c3cc(S(=O)(=O)NC4(C)CC4)ccc3n(CC#N)c2=O)s1` [Example 502, 1-(Cyanomethyl)-N-(1-methylcyclopropyl)-3-[(2-methylthiazol-5-yl)methyl]-2,4-dioxo-quinazoline-6-sulfonamide], the values for the concentration for half-maximal inhibition (IC50) in the experiment on PARG in HeLa cell line (setting [1]) and at Human Full Length PARG (read-out: PARG Biochem IC50) were 171 nM and 284 nM, respectively.

For the compound `Cc1noc(C)c1Cn1c(=O)c2cc(S(=O)(=O)NC3(C)CC3)ccc2n(C)c1=O` [Example 115], the IC50 with PARG in HeLa cell line (setting [4]) was 386 nM; on Human Full Length PARG (setting [3]) it was 616 nM.

In the case of `Cc1noc(C)c1Cn1c(=O)c2cc(S(=O)(=O)NC3(C)CC3)ccc2n(Cc2ccc(F)cc2)c1=O` [Example 168], the IC50 with PARG in HeLa cell line (setting [4]) is 146 nM; at Human Full Length PARG (setting [3]), 160 nM.

For `Cn1cc(Cn2c(=O)c3cc(S(=O)(=O)NC4(CF)CC4)ccc3n(Cc3ccno3)c2=O)cn1` [Example 585, N-[1-(Fluoromethyl)cyclopropyl]-1-(isoxazol-5-ylmethyl)-3-[(1-methylpyrazol-4-yl)methyl]-2,4-dioxo-quinazoline-6-sulfonamide], the IC50 in the experiment on PARG in HeLa cell line (setting [1]) was found to be 52 nM; at Human Full Length PARG (read-out: PARG Biochem IC50) it was 38 nM.

For the compound `Cc1nnc(Cn2c(=O)c3cc(S(=O)(=O)NC4(CF)CC4)ccc3n(C)c2=O)s1` [Example 515, N-[1-(Fluoromethyl)cyclopropyl]-1-methyl-3-[(5-methyl-1,3,4-thiadiazol-2-yl)methyl]-2,4-dioxo-quinazoline-6-sulfonamide], the IC50 with PARG in HeLa cell line (setting [1]) was 698 nM; on Human Full Length PARG (read-out: PARG Biochem IC50), 579 nM.

With `COc1cccc(Cn2c(=O)n(Cc3c(C)noc3C)c(=O)c3cc(S(=O)(=O)NC4(C)CC4)ccc32)c1` [Example 169], the IC50 worked out at 288 nM in the experiment with PARG in HeLa cell line (setting [2]) and 294 nM at Human Full Length PARG (setting [3]).

Regarding `CCC(=O)Cn1c(=O)c2cc(S(=O)(=O)NC3(C)CC3)ccc2n(C)c1=O` [Example 469, 1-Methyl-N-(1-methylcyclopropyl)-2,4-dioxo-3-(2-oxobutyl)quinazoline-6-sulfonamide], the IC50 in the experiment with PARG in HeLa cell line (setting [1]) was 663 nM; at Human Full Length PARG (read-out: PARG Biochem IC50), 1200 nM.

`Cc1nnc(Cn2c(=O)n(Cc3cnn(C)c3)c(=O)c3cc(S(=O)(=O)NC4(CF)CC4)ccc32)o1` [Example 567, N-[1-(Fluoromethyl)cyclopropyl]-1-[(5-methyl-1,3,4-oxadiazol-2-yl)methyl]-3-[(1-methylpyrazol-4-yl)methyl]-2,4-dioxo-quinazoline-6-sulfonamide]: the concentration for half-maximal inhibition (IC50) came out at 855 nM in the experiment with PARG in HeLa cell line (setting [1]) and 225 nM at Human Full Length PARG (read-out: PARG Biochem IC50).

`Cn1cc(Cn2c(=O)c3cc(S(=O)(=O)NC4(C)CC4)ccc3n(CC3CCOC3)c2=O)cn1` (stereo not drawn) [Example 259]: the IC50 with PARG in HeLa cell line (setting [4]) and at Human Full Length PARG (setting [3]) was 108 nM each time.

As to `C#CCn1c(=O)n(Cc2cnc(C)s2)c(=O)c2cc(S(=O)(=O)NC3(C#N)CC3)ccc21` [Example 403, N-(1-Cyanocyclopropyl)-3-[(2-methylthiazol-5-yl)methyl]-2,4-dioxo-1-prop-2-ynyl-quinazoline-6-sulfonamide], the values for the IC50 with PARG in HeLa cell line (setting [5]) and at Human Full Length PARG (read-out: PARG Biochem IC50) were 265 nM and 84 nM, respectively.

`CC(=O)NCc1cc(S(=O)(=O)NC2(C)CC2)cc2c(=O)n(Cc3cnn(C)c3)c(=O)[nH]c12` [Example 428, N-[[6-[(1-Methylcyclopropyl)sulfamoyl]-3-[(1-methylpyrazol-4-yl)methyl]-2,4-dioxo-1H-quinazolin-8-yl]methyl]acetamide]: the IC50 with PARG in HeLa cell line (setting [1]) is 27000 nM; at Human Full Length PARG (read-out: PARG Biochem IC50) it was 494 nM.

As for `Cc1cc(Cn2c(=O)c3cc(S(=O)(=O)NC4(CF)CC4)ccc3n(Cc3nncs3)c2=O)on1` [Example 627, N-[1-(Fluoromethyl)cyclopropyl]-3-[(3-methylisoxazol-5-yl)methyl]-2,4-dioxo-1-(1,3,4-thiadiazol-2-ylmethyl)quinazoline-6-sulfonamide], the IC50 in the experiment with PARG in HeLa cell line (setting [1]) is 351 nM; at Human Full Length PARG (read-out: PARG Biochem IC50), 159 nM.

Consider `Cc1ncc(Cn2c(=O)c3cc(S(=O)(=O)NC4(C#N)CC4)ccc3n(CC3CC3)c2=O)s1` [Example 399, N-(1-Cyanocyclopropyl)-1-(cyclopropylmethyl)-3-[(2-methylthiazol-5-yl)methyl]-2,4-dioxo-quinazoline-6-sulfonamide], for which the concentration for half-maximal inhibition (IC50) in the experiment on PARG in HeLa cell line (setting [1]) was found to be 87 nM; at Human Full Length PARG (read-out: PARG Biochem IC50), 31 nM.

With `Cn1cc(Cn2c(=O)c3cc(S(=O)(=O)NC4(C)CC4)ccc3n(CCN3CCCC3)c2=O)cn1` [Example 272], the results for the half-inhibitory concentration (IC50) in the experiment on PARG in HeLa cell line (setting [4]) and on Human Full Length PARG (setting [3]) were 467 nM and 317 nM, respectively.

In the case of `Cc1cc(Cn2c(=O)n(Cc3cnn(C)c3)c(=O)c3cc(S(=O)(=O)NC4(C(F)F)CC4)ccc32)n(C)n1` [Example 459, N-[1-(Difluoromethyl)cyclopropyl]-1-[(2,5-dimethylpyrazol-3-yl)methyl]-3-[(1-methylpyrazol-4-yl)methyl]-2,4-dioxo-quinazoline-6-sulfonamide], the IC50 in the experiment with PARG in HeLa cell line (setting [1]) was 1250 nM; at Human Full Length PARG (read-out: PARG Biochem IC50), 325 nM.

For `Cc1cc(Cn2c(=O)c3cc(S(=O)(=O)NC4(CF)CC4)ccc3n(Cc3ccc(F)cc3)c2=O)on1` [Example 518, N-[1-(Fluoromethyl)cyclopropyl]-1-[(4-fluorophenyl)methyl]-3-[(3-methylisoxazol-5-yl)methyl]-2,4-dioxo-quinazoline-6-sulfonamide], the IC50 in the experiment with PARG in HeLa cell line (setting [1]) came out at 95 nM; on Human Full Length PARG (read-out: PARG Biochem IC50) it was 117 nM.

For the compound `Cc1cc(Cn2c(=O)c3cc(S(=O)(=O)NC4(C)CC4)ccc3n(CC#N)c2=O)on1` [Example 503, 1-(Cyanomethyl)-N-(1-methylcyclopropyl)-3-[(3-methylisoxazol-5-yl)methyl]-2,4-dioxo-quinazoline-6-sulfonamide], the 50% inhibitory concentration (IC50) in the experiment on PARG in HeLa cell line (setting [1]) turned out to be 350 nM; at Human Full Length PARG (read-out: PARG Biochem IC50), 604 nM.

For `COCCn1c(=O)n(Cc2cnn(C)c2)c(=O)c2cc(S(=O)(=O)NC3(C)CC3)ccc21` [Example 270], the IC50 in the experiment with PARG in HeLa cell line (setting [4]) was 102 nM; at Human Full Length PARG (setting [3]), 128 nM.

For `Cc1cc(Cn2c(=O)c3cc(S(=O)(=O)NC4(CF)CC4)ccc3n(C(F)F)c2=O)on1` [Example 604, 1-(Difluoromethyl)-N-[1-(fluoromethyl)cyclopropyl]-3-[(3-methylisoxazol-5-yl)methyl]-2,4-dioxo-quinazoline-6-sulfonamide], the IC50 with PARG in HeLa cell line (setting [1]) was 295 nM; on Human Full Length PARG (read-out: PARG Biochem IC50), 788 nM.

On to `Cn1cc(Cn2c(=O)c3cc(S(=O)(=O)NC4(CF)CC4)ccc3n(Cc3cc[nH]n3)c2=O)cn1` [Example 586, N-[1-(Fluoromethyl)cyclopropyl]-3-[(1-methylpyrazol-4-yl)methyl]-2,4-dioxo-1-(1H-pyrazol-3-ylmethyl)quinazoline-6-sulfonamide], for which the concentration for half-maximal inhibition (IC50) with PARG in HeLa cell line (setting [1]) was 530 nM; at Human Full Length PARG (read-out: PARG Biochem IC50), 82 nM.

Take `CCn1c(=O)n(Cc2cnn(C)c2)c(=O)c2cc(S(=O)(=O)NC3(CF)CC3)ccc21` [Example 438, 1-Ethyl-N-[1-(fluoromethyl)cyclopropyl]-3-[(1-methylpyrazol-4-yl)methyl]-2,4-dioxo-quinazoline-6-sulfonamide]: the figures for the IC50 in the experiment with PARG in HeLa cell line (setting [1]) and on Human Full Length PARG (read-out: PARG Biochem IC50) were 84 nM and 106 nM, respectively.

Turning to `Cc1noc(C)c1Cn1c(=O)n(Cc2cnn(C)c2)c(=O)c2cc(S(=O)(=O)NC3(CF)CC3)ccc21` [Example 545, 1-[(3,5-Dimethylisoxazol-4-yl)methyl]-N-[1-(fluoromethyl)cyclopropyl]-3-[(1-methylpyrazol-4-yl)methyl]-2,4-dioxo-quinazoline-6-sulfonamide], the IC50 turned out to be 168 nM with PARG in HeLa cell line (setting [1]) and 145 nM at Human Full Length PARG (read-out: PARG Biochem IC50).

On to `Cn1cc(Cn2c(=O)c3cc(S(=O)(=O)NC4(CF)CC4)ccc3n(CCC#N)c2=O)cn1` [Example 574, 1-(2-Cyanoethyl)-N-[1-(fluoromethyl)cyclopropyl]-3-[(1-methylpyrazol-4-yl)methyl]-2,4-dioxo-quinazoline-6-sulfonamide], for which the IC50 turned out to be 530 nM in the experiment with PARG in HeLa cell line (setting [1]) and 170 nM on Human Full Length PARG (read-out: PARG Biochem IC50).

Regarding `Cc1cc(Cn2c(=O)c3cc(S(=O)(=O)NC4(CF)CC4)ccc3n(Cc3csc(C)n3)c2=O)on1` [Example 550, N-[1-(Fluoromethyl)cyclopropyl]-3-[(3-methylisoxazol-5-yl)methyl]-1-[(2-methylthiazol-4-yl)methyl]-2,4-dioxo-quinazoline-6-sulfonamide], the IC50 in the experiment with PARG in HeLa cell line (setting [5]) stood at 134 nM; at Human Full Length PARG (read-out: PARG Biochem IC50), 191 nM.

Turning to `Cc1cc(Cn2c(=O)c3cc(S(=O)(=O)NC4(C)CC4)ccc3n(CC3CCC3)c2=O)on1` [Example 288], the results for the half-maximal inhibitory concentration (IC50) with PARG in HeLa cell line (setting [2]) and on Human Full Length PARG (setting [3]) were 79 nM and 175 nM, respectively.

Take `Cc1cc(Cn2c(=O)c3cc(S(=O)(=O)NC4(C)CC4)ccc3n(CC3CCCC3)c2=O)on1` [Example 289]: the concentration for half-maximal inhibition (IC50) in the experiment with PARG in HeLa cell line (setting [2]) stood at 129 nM; on Human Full Length PARG (setting [3]) it was 280 nM.

For the compound `Cn1cc(Cn2c(OCC3(C)COC3)nc3cc(F)c(S(=O)(=O)NC4(C)CC4)cc3c2=O)cn1` [Example 397, 7-Fluoro-3-((1-methyl-1H-pyrazol-4-yl)methyl)-N-(1-methylcyclopropyl)-2-((3-methyloxetan-3-yl)methoxy)-4-oxo-3,4-dihydroquinazoline-6-sulfonamide], the figures for the IC50 in the experiment on PARG in HeLa cell line (setting [1]) and at Human Full Length PARG (read-out: PARG Biochem IC50) were 256 nM and 282 nM, respectively.
